Laboratory results taken from US9765105B2, “Macrolide compound” (Pulike Biological Engineering, Inc., priority 2013, dated 2017).

Key:
[1] = tested on: Streptococcus pneumoniae CMCC 31203; assay: in vivo antibacterial test, survival of infected mice; design: species or system BALB/c mice; conditions: mice infected i.p. with Streptococcus pneumoniae; 5 mg per kg subcutaneous for 3 consecutive days; observed until the seventh day
[2] = acute oral toxicity test, LD50 by improved karber method
Haemophilus parasuis = assay: in vitro susceptibility, MIC by mini broth dilution; format: cell-based
Procedure, shortened: (§1)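 Read-out is the minimum inhibitory concentration, measured by mini broth dilution following the US NCCLS approved standard, with 11 two-fold compound dilutions in DMSO and a 1:200-diluted inoculum.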

[3] = tested on: Streptococcus equines CVCC556; assay: as above; format: cell-based; conditions: strain CVCC556
Procedure, shortened: as §1

[4] = tested on: Actinobacillus pleuropneumoniae CVCC262; assay: as above; format: cell-based; conditions: strain CVCC262
Procedure, shortened: as §1

[5] = tested on: Pasteurella multocida CVCC399; assay: as above; format: cell-based; conditions: strain CVCC399
Procedure, shortened: as §1

[6] = tested on: Staphylococcus aureus CVCC26003; assay: as above; format: cell-based; conditions: strain CVCC26003
Procedure, shortened: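 S. aureus CVCC26003 was revived and subcultured twice, 20 h each at 35° C, on solid medium, then diluted 1:200 in CAMHB liquid medium. Compounds received an 11-step two-fold DMSO dilution in parallel duplicate rows. MIC was read by mini broth dilution per NCCLS guidance.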

SMILES	Animal survival rate (surviving/total animals) [1]	LD50 at 7 days ([2]; both, Konmin, mouse, in vivo, po)	MIC values, Haemophilus parasuis (Haemophilus parasuis)	MIC values, Streptococcus equines CVCC556 [3]	MIC values, Actinobacillus pleuropneumoniae CVCC262 [4]	MIC values, Pasteurella multocida CVCC399 [5]	LD50 ([2]; per os, gavaged once, in 0.2% sodium carboxymethylcellulose, observed 7 days)	MIC values, Staphylococcus aureus CVCC26003 [6]	Animal survival rate [1]
CC[C@@H]1OC(=O)[C@H](C)[C@H](OC2C[C@@](C)(OC)[C@](O)(CNC(C)(C)C)[C@H](C)O2)[C@@H](C)[C@@H](O[C@@H]2O[C@H](C)C[C@H](N(C)C)[C@H]2O)[C@](C)(O)C[C@@H](C)NC[C@@H](C)[C@H](O)[C@]1(C)O (stereo partly drawn) [syzx-14]	8/10	2590 mg/kg	–	–	–	–	–	–	–
CCCN1C[C@H](C)[C@@H](O)[C@](C)(O)[C@@H](CC)OC(=O)[C@H](C)[C@@H](O[C@H]2C[C@@](C)(OC)[C@@H](O)[C@H](C)O2)[C@H](C)[C@@H](O[C@@H]2O[C@H](C)C[C@H](N(C)C)[C@H]2O)[C@](C)(O)C[C@H]1C [Gamithromycin, reference compound]	–	–	0.25 ug/mi	0.5 ug/mi	0.25 ug/mi	0.25 ug/mi	2165.2 mg/kg	0.25 ug/mi	–
CC[C@@H]1OC(=O)[C@H](C)[C@H](OC2C[C@@](C)(OC)[C@](O)(CNCC3CCCCC3)[C@H](C)O2)[C@@H](C)[C@@H](O[C@@H]2O[C@H](C)C[C@H](N(C)C)[C@H]2O)[C@](C)(O)C[C@@H](C)NC[C@@H](C)[C@H](O)[C@]1(C)O (stereo partly drawn) [syzx-67]	8/10	–	–	–	–	–	–	–	–
CC[C@@H]1OC(=O)[C@H](C)[C@H](OC2C[C@@](C)(OC)[C@](O)(CNC3CCCC3)[C@H](C)O2)[C@@H](C)[C@@H](O[C@@H]2O[C@H](C)C[C@H](N(C)C)[C@H]2O)[C@](C)(O)C[C@@H](C)NC[C@@H](C)[C@H](O)[C@]1(C)O (stereo partly drawn) [syzx-30, (2R,3S,4R,5S,8R,10R,11R,12S,13S,14R)-13-[(2,6-dideoxy-3-C-methyl-3-O-methyl-4-C-[(cyclopentylamino)-methyl]-α-L-ribopyranosyl)oxy]-2-ethyl-3,4,10-trihydroxy-3,5,8,10,12,14-hexamethyl-11-[[3,4,6-trideoxy-3-(dimethylamino)-β-D-xylo-hexopyranosy]oxy]-1-oxa-7-azacyclopentadecan-15-one]	8/10	–	–	–	–	–	–	–	–
CC[C@@H]1OC(=O)[C@H](C)[C@H](OC2C[C@@](C)(OC)[C@](O)(CNCc3cccc(OC)c3)[C@H](C)O2)[C@@H](C)[C@@H](O[C@@H]2O[C@H](C)C[C@H](N(C)C)[C@H]2O)[C@](C)(O)C[C@@H](C)NC[C@@H](C)[C@H](O)[C@]1(C)O (stereo partly drawn) [syzx-35, (2R,3S,4R,5S,8R,10R,11R,12S,13S,14R)-13-[(2,6-dideoxy-3-C-methyl-3-O-methyl-4-C-[[3-methoxybenzyl-amino]-methyl]-α-L-ribopyranosyl)oxy]-2-ethyl-3,4,10-trihydroxy-3,5,8,10,12,14-hexamethyl-11-[[3,4,6-trideoxy-3-(dimethylamino)-β-D-xylo-hexopyranosy]oxy]-1-oxa-7-azacyclopentadecan-15-one]	7/10	–	–	–	–	–	–	–	70%
CCCCCNC[C@]1(O)[C@H](C)OC(O[C@@H]2[C@@H](C)[C@@H](O[C@@H]3O[C@H](C)C[C@H](N(C)C)[C@H]3O)[C@](C)(O)C[C@@H](C)NC[C@@H](C)[C@H](O)[C@](C)(O)[C@H](CC)OC(=O)[C@@H]2C)C[C@@]1(C)OC (stereo partly drawn) [syzx-47, (2R,3S,4R,5S,8R,10R,11R,12S,13S,14R)-13-[(2,6-dideoxy-3-C-methyl-3-O-methyl-4-C-[[n-pentyl-amino]-methyl]-α-L-ribopyranosyl)oxy]-2-ethyl-3,4,10-trihydroxy-3,5,8,10,12,14-hexamethyl-11-[[3,4,6-trideoxy-3-(dimethylamino)-β-D-xylo-hexopyranosy]oxy]-1-oxa-7-azacyclopentadecan-15-one]	9/10	–	–	–	–	–	–	–	–
CC[C@@H]1OC(=O)[C@H](C)[C@H](OC2C[C@@](C)(OC)[C@](O)(CNCc3cnc(C)cn3)[C@H](C)O2)[C@@H](C)[C@@H](O[C@@H]2O[C@H](C)C[C@H](N(C)C)[C@H]2O)[C@](C)(O)C[C@@H](C)NC[C@@H](C)[C@H](O)[C@]1(C)O (stereo partly drawn) [syzx-65, (2R,3S,4R,5S,8R,10R,11R,12S,13S,14R)-13-[(2,6-dideoxy-3-C-methyl-3-O-methyl-4-C-{[(5-methyl-pyrazin-2-yl-methyl)-amino]-methyl}-α-L-ribopyranosyl)oxy]-2-ethyl-3,4,10-trihydroxy-3,5,8,10,12,14-hexamethyl-11-[[3,4,6-trideoxy-3-(dimethylamino)-β-D-xylo-hexopyranosy]oxy]-1-oxa-7-azacyclopentadecan-15-one]	9/10	–	–	–	–	–	–	–	–
CC[C@@H]1OC(=O)[C@H](C)[C@H](OC2C[C@@](C)(OC)[C@](O)(CNCCCOC)[C@H](C)O2)[C@@H](C)[C@@H](O[C@@H]2O[C@H](C)C[C@H](N(C)C)[C@H]2O)[C@](C)(O)C[C@@H](C)NC[C@@H](C)[C@H](O)[C@]1(C)O (stereo partly drawn) [syzx-66]	8/10	–	–	–	–	–	–	–	–
CCCN1C[C@H](C)[C@@H](O)[C@](C)(O)[C@@H](CC)OC(=O)[C@H](C)[C@@H](O[C@H]2C[C@@](C)(OC)[C@](O)(CNCC3CCNCC3)[C@H](C)O2)[C@H](C)[C@@H](O[C@@H]2O[C@H](C)C[C@H](N(C)C)[C@H]2O)[C@](C)(O)C[C@H]1C [syzx-193]	–	–	2 ug/mi	0.25 ug/mi	4 ug/mi	2 ug/mi	–	4 ug/mi	–
CC[C@H]1OC(=O)[C@H](C)[C@@H](O[C@H]2C[C@@](C)(OC)[C@](O)(CNC(C)C(C)(C)C)[C@H](C)O2)[C@H](C)[C@@H](O[C@@H]2O[C@H](C)C[C@H](N(C)C)[C@H]2O)[C@](C)(O)C[C@@H](C)NC[C@H](C)[C@@H](O)[C@]1(C)O (stereo partly drawn) [syzx-100, (2R,3S,4R,5S,8R,10R,11R,12S,13S,14R)-13-[(2,6-dideoxy-3-C-methyl-3-O-methyl-4-C-[(1,2,2-trimethyl-propylamino)-methyl]-α-L-ribopyranosyl)oxy]-2-ethyl-3,4,10-trihydroxy-3,5,8,10,12,14-hexamethyl-11-[[3,4,6-trideoxy-3-(dimethylamino)-β-D-xylo-hexopyranosy]oxy]-1-oxa-7-azacyclopentadecan-15-one]	–	–	2 ug/mi	2 ug/mi	1 ug/mi	0.5 ug/mi	–	1 ug/mi	–
CCCN1C[C@H](C)[C@@H](O)[C@](C)(O)[C@@H](CC)OC(=O)[C@H](C)[C@@H](O[C@H]2C[C@@](C)(OC)[C@](O)(CNC(C)(C)C)[C@H](C)O2)[C@H](C)[C@@H](O[C@@H]2O[C@H](C)C[C@H](N(C)C)[C@H]2O)[C@](C)(O)C[C@H]1C [syzx-1 14]	–	–	0.25 ug/mi	0.25 ug/mi	0.25 ug/mi	0.25 ug/mi	–	0.25 ug/mi	–
CCCN1C[C@H](C)[C@@H](O)[C@](C)(O)[C@@H](CC)OC(=O)[C@H](C)[C@@H](O[C@H]2C[C@@](C)(OC)[C@](O)(CNC(C)C)[C@H](C)O2)[C@H](C)[C@@H](O[C@@H]2O[C@H](C)C[C@H](N(C)C)[C@H]2O)[C@](C)(O)C[C@H]1C [syzx-111]	–	–	0.25 ug/mi	0.25 ug/mi	0.25 ug/mi	0.5 ug/mi	–	0.25 ug/mi	–
CC[C@H]1OC(=O)[C@H](C)[C@@H](O[C@H]2C[C@@](C)(OC)[C@](O)(CNCC3CCNCC3)[C@H](C)O2)[C@H](C)[C@@H](O[C@@H]2O[C@H](C)C[C@H](N(C)C)[C@H]2O)[C@](C)(O)C[C@@H](C)NC[C@H](C)[C@@H](O)[C@]1(C)O [syzx-93]	–	–	8 ug/mi	1 ug/mi	16 ug/mi	64 ug/mi	–	32 ug/mi	–
CC[C@H]1OC(=O)[C@H](C)[C@@H](O[C@H]2C[C@@](C)(OC)[C@](O)(CNCC(O)c3ccccc3)[C@H](C)O2)[C@H](C)[C@@H](O[C@@H]2O[C@H](C)C[C@H](N(C)C)[C@H]2O)[C@](C)(O)C[C@@H](C)NC[C@H](C)[C@@H](O)[C@]1(C)O (stereo partly drawn) [syzx-52, (2R,3S,4R,5S,8R,10R,11R,12S,13S,14R)-13-[(2,6-dideoxy-3-C-methyl-3-O-methyl-4-C-[(2-hydroxy-2-phenyl-ethylamino)-methyl]-α-L-ribopyranosyl)oxy]-2-ethyl-3,4,10-trihydroxy-3,5,8,10,12,14-hexamethyl-11-[[3,4,6-trideoxy-3-(dimethylamino)-β-D-xylo-hexopyranosy]oxy]-1-oxa-7-azacyclopentadecan-15-one]	–	–	≦0.25 ug/mi	0.5 ug/mi	32 ug/mi	0.5 ug/mi	–	0.5 ug/mi	–
